Earlier results as cited in patent US20110212192A1, “INGESTIBLES CONTAINING SUGAR AND CINNAMON OR GINSENG” (ALLEGIANCE EQUITY CORPORATION, priority 2008, published 2011).

Experiments:
Details in all cases: immunoblotting; mouse 3T3-L1 adipocytes
insulin receptor (IR) = test system: insulin receptor (IR)
tristetraprolin (TTP) = test system: tristetraprolin (TTP)
[1] = test system: glucose transporter 4 (GLUT4)

insulin
increased: level of insulin receptor (IR) protein (insulin receptor (IR)) | level of tristetraprolin (TTP) protein (tristetraprolin (TTP)) | level of glucose transporter 4 (GLUT4) protein [1]
